According to patent US20220050096A1, “ANALYTE-SENSITIVE PROBES AND CONTACT LENS FOR DIAGNOSIS OF OCULAR PATHOLOGIES” (University Of Maryland, Baltimore, priority 2020, published 2022):

Columns and labels:
[1] = Sodium binding affinity (mid-point of response) and sodium-dependent intensity of probes bound to contact lenses; settings: lens not named; read-out: binding constant after addition of linker, hydrophobic moiety and/or binding to the lenses
Procedure: (§1) Fluorescence Spectroscopic Measurements. Fluorescence intensities and intensity decays were measured using a Varian™ Eclipse 4 spectrofluorometer and a FluoTime300 instrument from PicoQuant™ (Berlin, Germany) and analyzed with the EasyTau™ software. The excitation source was a 473 nm laser diode with a repetition rate of 40 MHZ and a pulse width less than 100 ps. In other embodiments, the excitation source for SG-PL was at 495 nm from a Solea™ supercontinuum laser (PicoQuant™, Germany) and a 375 nm laser diode (PDL 375, PicoQuant™), a repetition rate of 40 MHz, and a pulse width less than 100 ps. Some intensity and lifetime measurements for SG-PL (as indicated) were performed using Alba V confocal fluorescence lifetime microscopy, FLIM (ISS, Urbana, Ill.), with excitation source of a 473 nm laser diode with a repetition rate of 40 MHz and a pulse width near 250 ps.
Sodium Binding Affinity. The sodium affinity of the labeled lenses can be described in terms of the dissociation constant. The dissociation reaction for the probe complexed with Na+ can be written as
P—Na^+↔P+Na^+ (equation 4) […]
Binding affinity curves of SG-PL with sodium in Biofinity™ and MyDay™ lenses were produced by plotting the normalized intensities with respect to the added sodium concentrations. The curves were measured by intensities at peak maximum (FIG. 38A) or amplitude-weighted lifetimes (FIG. 38B). […]

[2] = Fluorescence anisotropy decays of SG in buffer and sodium probes in Biofinity lenses; assay type: physicochemical
Procedure: Three decay time components were required for the intensity decays. Fluorescence anisotropy decays were determined by individual measurements of the polarized intensity decays with corrections for the G-factor. Resolution of multi-exponential decays is not necessary. The average lifetime can be used as a single measurement.
Similar anisotropy decays have been observed for numerous fluorophores bound to large proteins or membranes.

[3] = Chloride-dependent intensity decay analysis of SPQ-C18 in Biofinity contact lenses, phosphate buffer pH 7.2; assay type: physicochemical
Procedure: as §1
Intensity decays were measured at the emission maximum with the band of 10 to 20 nm, analyzed in terms of the multi-exponential model:
I(t)=Σαi exp(−t/ti) (equation 1)
where ti are the individual decay times and αi the initial time-zero amplitudes. The mean decay time can be represented in two ways. The average lifetime is given by:
where Σαi=1.0 and Σfi=1.0. The term fi=αi τi is proportional to the fractional contribution of each component to the total intensity decay. The term τi/Σαi τi is the fractional contribution to the steady state emission. Here, we use the amplitude-weighted lifetime given by
which is appropriate when the emission is from a single fluorophore with a changing quantum yield. For a single exponential decay, the lifetime is given by τ=1.0/(knr+Γ) and the quantum yield is given by Q=Γ/(knr+Γ) where knr is the sum of all non-radiative decay rates and Γ is the radiative decay rate. The value of Γ is determined by the molecular extinction coefficient that remains constant under most conditions. For a single type of fluorophore with a constant value of Γ the normalized αi values represent the molecular fraction of each decay time component. The value of αi and τi were determined by non-linear least squares fitting using PicoQuant™ software.
Quenching by Chloride. Collisional quenching occurs, for example, when SPQ-C18 (also referred to as OD-MQB (N-Octadecyl-6-methoxyquinolinium bromide)) has a diffusion collision with a chloride ion. The intensities (I) and lifetimes (6) are analyzed using the Stern-Volmer equation,
SPQ-C18 was synthesized using 6-methoxy quinolinium (SPQ) and 1-bromooctadecane (C18) as described in the art. Lenses were labeled by incubation with 3 ml of a 1 μM solution of SPQ-C18 in methanol-water. SPQ-C18 bound rapidly to the Biofinity™ lenses. […] Unless stated otherwise, all spectral measurements conducted for the present study were performed in 20 mM MOPS buffer, 8 mM KCl, pH 7.2, at room temperature.

SMILES: COc1cc(N2CCOCCOCCN(c3cc(OC)c(NC(=O)c4ccc(-c5c6cc(Cl)c(=O)cc-6oc6cc([O-])c(Cl)cc56)c(C(=O)[O-])c4)cc3OC)CCOCC2)c(OC)cc1NC(=O)c1ccc(-c2c3cc(Cl)c(=O)cc-3oc3cc([O-])c(Cl)cc23)c(C(=O)[O-])c1.C[N+](C)(C)C.C[N+](C)(C)C.C[N+](C)(C)C.C[N+](C)(C)C [SG]
- Kd [1]: ~100 mM
- anisotropy decay [2]: decayed quickly to zero

SMILES: CCCCCCCCCCCCCCCCCC[n+]1cccc2cc(OC)ccc21 [SPQ-C18, N-Octadecyl-6-methoxyquinolinium bromide]
- f1 ([3]; NaCl 0 mM): 0.02
- f2 ([3]; NaCl 0 mM): 0.10
- f3 ([3]; NaCl 0 mM): 0.88
- α1 ([3]; NaCl 0 mM): 0.36
- α2 ([3]; NaCl 0 mM): 0.21
- α3 ([3]; NaCl 0 mM): 0.44
- τ1 ([3]; NaCl 0 mM): 0.69 ns
- τ2 ([3]; NaCl 0 mM): 5.15 ns
- τ3 ([3]; NaCl 0 mM): 20.74 ns
- τf ([3]; NaCl 0 mM): 18.66 ns
- τα ([3]; NaCl 0 mM): 10.35 ns
- f1 ([3]; NaCl 20 mM): 0.03
- f2 ([3]; NaCl 20 mM): 0.13
- f3 ([3]; NaCl 20 mM): 0.84
- α1 ([3]; NaCl 20 mM): 0.41
- α2 ([3]; NaCl 20 mM): 0.21
- α3 ([3]; NaCl 20 mM): 0.38
- τ1 ([3]; NaCl 20 mM): 0.65 ns
- τ2 ([3]; NaCl 20 mM): 4.98 ns
- τ3 ([3]; NaCl 20 mM): 17.88 ns
- τf ([3]; NaCl 20 mM): 15.65 ns
- τα ([3]; NaCl 20 mM): 8.08 ns
- f1 ([3]; NaCl 50 mM): 0.03
- f2 ([3]; NaCl 50 mM): 0.22
- f3 ([3]; NaCl 50 mM): 0.75
- α1 ([3]; NaCl 50 mM): 0.38
- α2 ([3]; NaCl 50 mM): 0.29
- α3 ([3]; NaCl 50 mM): 0.33
- τ1 ([3]; NaCl 50 mM): 0.73 ns
- τ2 ([3]; NaCl 50 mM): 5.54 ns
- τ3 ([3]; NaCl 50 mM): 16.81 ns
- τf ([3]; NaCl 50 mM): 13.76 ns
- τα ([3]; NaCl 50 mM): 7.38 ns
- f1 ([3]; NaCl 90 mM): 0.05
- f2 ([3]; NaCl 90 mM): 0.26
- f3 ([3]; NaCl 90 mM): 0.68
- α1 ([3]; NaCl 90 mM): 0.43
- α2 ([3]; NaCl 90 mM): 0.31
- α3 ([3]; NaCl 90 mM): 0.26
- τ1 ([3]; NaCl 90 mM): 0.75 ns
- τ2 ([3]; NaCl 90 mM): 5.33 ns
- τ3 ([3]; NaCl 90 mM): 16.41 ns
- τf ([3]; NaCl 90 mM): 12.49 ns
- τα ([3]; NaCl 90 mM): 6.18 ns
- f1 ([3]; NaCl 140 mM): 0.06
- f2 ([3]; NaCl 140 mM): 0.31
- f3 ([3]; NaCl 140 mM): 0.62
- α1 ([3]; NaCl 140 mM): 0.44
- α2 ([3]; NaCl 140 mM): 0.33
- α3 ([3]; NaCl 140 mM): 0.22
- τ1 ([3]; NaCl 140 mM): 0.82 ns
- τ2 ([3]; NaCl 140 mM): 5.43 ns
- τ3 ([3]; NaCl 140 mM): 16.26 ns
- τf ([3]; NaCl 140 mM): 11.91 ns
- τα ([3]; NaCl 140 mM): 5.81 ns
- f1 ([3]; NaCl 200 mM): 0.08
- f2 ([3]; NaCl 200 mM): 0.34
- f3 ([3]; NaCl 200 mM): 0.58
- α1 ([3]; NaCl 200 mM): 0.48
- α2 ([3]; NaCl 200 mM): 0.34
- α3 ([3]; NaCl 200 mM): 0.20
- τ1 ([3]; NaCl 200 mM): 0.77 ns
- τ2 ([3]; NaCl 200 mM): 4.92 ns
- τ3 ([3]; NaCl 200 mM): 15.93 ns
- τf ([3]; NaCl 200 mM): 11.03 ns
- τα ([3]; NaCl 200 mM): 4.90 ns
